Laboratory results reported in patent US4650791A, “Certain 3-alkoxy-2-cyclic-imido-propyl-phosphate-ethyl-cyclic ammonium hydroxide inner salts which inhibit activities of platelet activating factor” (Takedo Chemical Industries, Ltd., priority 1984, dated 1987).

Key:
[1] = system: PAF-induced platelet aggregation (washed PRP); test: Activity to inhibit PAF in platelet aggregation (washed PRP); format: cell-based; conditions: Oryctolagus cuniculus, male rabbit, compound 3×10^-5 M, PAF 3×10^-5 M, 37° C., read-out: inhibition rate relative to the maximum transmission (maximum aggregation) of control PRP by PAF
Description: Activity to inhibit PAF in platelet aggregation
Using an injection syringe containing a 3.15% solution of citric acid (in a ratio of 1 part per 9 parts of blood) as an anticoagulant, the blood was directly collected from a male rabbit. Then, at room temperature, the blood was centrifuged at 1,000 r.p.m. for 10 minutes to harvest a platelet rich plasm (PRP). This PRP was further centrifuged at 1,400 r.p.m. for 15 minutes to give platelet pellets. The pellets were suspended in Ca^++ -free Tyrode solution (containing 0.25% of gelatin) to give a washed PRP. This washed PRP (250 μl) was stirred at 37° C. for 2 minutes, then 25 μl of a 0.2 to 0.5 mM Ca^++ solution was added, and the mixture was further stirred for 30 seconds. Then, the compound obtained in Example 5 was added to a concentration of 3×10^-5 M. After stirring the mixture for 2 minutes, 3×10^-5 M of PAF was added. The degree of platelet aggregation was determined with a platelet aggregometer (Rika Denki). The activity of the test drug was estimated from the inhibition rate relative to the maximum transmission (maximum aggregation) of control PRP by PAF. The inhibition rate thus found was 70%.

[2] = system: PAF-induced platelet aggregation (PRP); test: Activity on inhibiting platelet aggregation (PRP, PAF-induced); format: cell-based; conditions: male rabbit, PAF 1×10^-8 M, 37° C.
Description: Activity on inhibiting platelet aggregation
Using an injection syringe containing 3.15% citric acid (in a ratio of 1 part per 9 parts of blood) as an anticoagulant, the blood was directly collected from a male rabbit. Then, at room temperature, the blood was centrifuged at 800 r.p.m. for 10 minutes to harvest a platelet rich plasma (PRP). The remaining blood was further centrifuged at 3,000 r.p.m. for 10 minutes to separate a platelet poor plasma (PPP) as a supernatant. The PRP was diluted with the PPP to adjust the number of platelets to about 0.5 million (5×10^5) per μl. This PRP (250 μl) was stirred at 37° C. for 2 minutes, and the test compound was added to the PRP. After stirring the mixture for 2 minutes, 1×10^-8 M of PAF was added to the mixture. The degree of platelet aggregation was determined with a platelet aggregometer (Rika Denki). The aggregation inhibitory activity of the test compound was estimated from the inhibition rate relative to the maximum transmission (maximum aggregation) of control PRP by PAF.

Compound | inhibition at 30 µM [1] | Inhibition rate (%) ([2]; test compound 3 × 10^-5 (M)) | Inhibition rate (%) ([2]; test compound 3 × 10^-6 (M))
CCCCCCCCCCCCCCCCCCOCC(COP(=O)([O-])OCC[n+]1ccccc1)N1C(=O)c2ccccc2C1=O (centres unmarked) [Example 5, 3-Octadecyloxy-2-phthalimidopropyl 2-pyridinioethyl phosphate] | 70% |  | 
CCCCCCCCCCCCCCCCCCOCC(COP(=O)([O-])OCC[n+]1ccsc1)N1C(=O)c2ccccc2C1=O (centres unmarked) [Example 6, 3-Octadecyloxy-2-phthalimidopropyl 2-thiazolioethyl phosphate] |  | 100% | 96%
CCCCCCCCCCCCCCCCCCOCC(COP(=O)([O-])OCC[n+]1ccsc1)N1C(=O)CCC1=O (centres unmarked) [Example 12, 3-Octadecyloxy-2-succinimidopropyl 2-thiazolioethyl phosphate] |  | 100% | 32%
